Laboratory results published in patent US5705501A, “Certain substituted 1-aryl-3-morpholinopropanones to treat Alzheimer's Disease” (priority 1994, dated 1998).
Counter-ions that a name gives are not always drawn.

Columns and labels:
[1] = test system: paired helical filament epitopes (TG3) in human brain tissue; assay: Direct ELISA with TG3 antibody on post-mortem brain tissue of patients (second retrospective study); assay type: in vivo; conditions: chlorpromazine treated patients (Rx), N 51, summed absorbance
From the text: In a subsequent study, 51 additional patients were identified and the analysis was repeated as above using the TG3 antibody in an ELISA format. The results, summarized in Table 1, clearly reproduce and confirm the first retrospective study. Immunohistopathological studies carried out on several brain regions from these patients were consistent with these ELISA results. Taken together, these two studies provide evidence of the therapeutic benefit of chlorpromazine in AD and validate the use of the MSN1a model for the identification of therapeutically useful compounds for the treatment of AD.
*Signal is calculated by summing the means of duplicate absorbance
readings (direct ELISA using TG3 antibody) for 8 dilutions of all lysates
prepared by one to two serial dilutions.

[2] = test system: PHF epitope (ADAP) levels in human brain tissue; assay: ALZ-EIA of PHF epitope (ADAP) levels in post-mortem brain tissue of chronically treated patients (first retrospective study); assay type: in vivo; conditions: chronically chlorpromazine treated patients (Rx), Brodman areas 10 and 38, ALZ-EIA
Protocol: FIG. 4A is a chart showing relative ADAP concentrations in Brodman Area 10 in Alzheimer's Disease patients, normal controls and patients treated with chloropromazine (Rx).
FIG. 4B is a chart showing relative ADAP concentrations in Brodman Area 38 in Alzheimer's Disease patients, normal controls and patients treated with chloropromazine (Rx).
Frontal and cortical brain tissue specimens obtained at autopsy from patients chronically treated with chlorpromazine were analyzed using the ALZ-EIA method previously described (Ghanbari, H A, et al, JAMA, 263, 2907, 1990). The results are shown in FIGS. 4A and 4B frontal (Broadman area 10) and temporal (Broadman area 38) regions, respectively. The brain tissue (post-mortem) from approximately the same number of (age matched) normal controls and Alzheimer's Disease patients were also analyzed and are presented in these figures as negative and positive controls (for normal and AD, respectively).

[3] = test system: TG3 immunoreactivity in OKA treated MSN1a cells; assay: Inhibition of TG3 immunoreactivity in OKA treated MSN1a cells (ELISA); assay type: cell-based, human; conditions: TG3 antibody; for IC50: Homo sapiens, 1 μM OKA, 0-64 μM drug, 2 hrs at 37° C.
Protocol: This assay can thus be used to determine whether a drug is capable of preventing or intervening in AD by attenuating the production of abnormally phosphorylated paired helical filament epitopes associated with AD. To determine whether a drug is capable of preventing or intervening in AD activity, the MSN1a cells containing tau and associated proteins are treated with OKA capable of greatly increasing immunoreactivity of the MSN1a cells with AD specific monoclonal antibodies. Then, either prior to or concomitantly with OKA treatment, a compound of the present invention is added to the culture. If the compound prevents the induction of the AD epitopes in the MSN1a cells treated with OKA, then it is said to have anti-AD activity. If the AD-specific antibodies are highly reactive with the neuroblastoma cells following OKA treatment in the presence of compound, then the compound is said to be ineffectual against AD.
The MSN1a human neuroblastoma line was subcloned from a population of MSN cells obtained from the laboratory of Dr. Peter Davies (Albert Einstein College of Medicine, New York, N.Y.). Cells were grown and maintained in flasks in RPMI 1640 medium, supplemented with 15% fetal calf serum, 100 U/ml penicillin, 100 U/ml Streptomycin, 0.5 ug/ml fungizone under 7.5% CO2 at 37° C.
Stock solutions of drugs were prepared by dissolving the anhydrous powders to final concentrations of either 10 or 20 mM in 50% aqueous or 100% dimethyl sulfoxide (DMSO), respectively. Working solutions of drugs were prepared by dilution of the stock solutions with Kreb's Ringer in Hepes buffer (KRH) (128 mM NaCl, 5 mM KCl, 2.5 mM CaCl2 1.2 mM MgSO4, 1 mM Na2 HPO4, 10 mM dextrose, 20 mM Hepes, pH 7.4). OKA is maintained as a 1 mM stock solution in DMSO prior to dilution to 4 μM in KRH.
MSN cells grown in 225 cm^2 flasks are removed from the incubator, their medium decanted and replaced with 50 ml pre-warmed KRH. The cells are harvested by scraping prior to sedimentation at 1000 rpm for 5 min. The supernatants are discarded and the cell pellets are resuspended, the cells counted and diluted to a density of 2×10^4 cells/[…]. The cells are then plated in a 96 well plate at 50 μl/well and 25 μl of 4 μM OKA and 25 μl of drug are then added to the appropriate wells; the entire 96 well plate is then incubated for 2 hrs at 37° C. Depending on the dilution of drug added, this yields individual wells containing 1 μM OKA, 0-64 μM drug and 2×10^4 cells in 0.26% DMSO in KRH. The incubation is terminated by the addition of 20 μl of 6X extraction buffer and immediate freezing at -80° C. for at least one hr. The 6X extraction buffer contains: 25 mM Tris-HCl, pH 7.6, 150 mM NaCl, 5 mM EDTA, 24 mM δ-glycerol phosphate, 10 μg/ml APMSF (4-amidinophenylmethane-sulfonyl flouride), and 2.5 μg/ml each of leupeptin, aprotinin, and pepstatin. The plates are thawed in a 37° C. water bath and 20 μl of cell lysate is added to a replica well in an ELISA plate that already contains 80 μl of coating buffer (15 mM Na2 CO3 and 35 mM NaHCO3, pH 9.6). The plates are allowed to coat overnight at 4° C. The plates are washed four times with deionized water and then blocked for 30 min at 37° C. with 200 μl/well pre-warmed 1% bovine serum albumin in 10 mM Tris-HCl, pH 7.4, 150 mM NaCl, 3 mM NaN3 (BSA-TBS). After the blocking solution is removed, 100 μl/well of an appropriate dilution of pre-warmed primary antibody (eg., TG3 or PHF-1) in BSA-TBS is added and incubated at 37° C. for 30 min. Incubation is terminated by washing four times in deionized water at which time 100 μl of an appropriate dilution of pre-warmed secondary antibody (conjugated to alkaline phosphatase) in BSA-TBS is added to each well in the ELISA plate. Incubation is performed for 30 min at 37° C. followed by washing 4 times with deionized water. […] of prewarmed chromogenic substrate (1 mg/ml p-nitrophenyl phosphate in 10% diethanolamine, 3 mM NAN3, 0.5 mM MgCl2, pH 9.8) is added and the plate incubated for 30 min at 37° C. […]

[4] = test system: paired helical filament epitopes (PHF-1) in MSN1a cells; assay: Western blot of PHF-1 immunoreactivity in MSN1a cells treated with okadaic acid; assay type: cell-based, human
Protocol: FIG. 3 is a western blot showing PHF-1 immunoreactivity in lysates from control and chlorpromazine treated MSN cells treated with okadaic acid.
These compounds are effective at micromolar concentrations, with increased potency being evident when cells are treated prior to the addition of okadaic acid. The effective concentrations appear to be in the range at which these drugs are present in the brain following chronic treatment of psychiatric patients (Svendsen, CN, Psychopharmacology, 90, 316-321, 1986).
To determine the effect of chlorpromazine on the paired helical filament epitopes associated with AD, MSN1a cells expressing paired helical filament epitopes were incubated with […] chlorpromazine (CPZ) or a 0.2% DMSO vehicle control for 2 hours at 37° C. The cells were isolated by centrifugation, boiled for 10 minutes and […] protein from the resulting heat stable supernatants were loaded per lane on an SDS-PAGE gel. The gel was electrophoretically transferred to nitrocellulose membrane and then immunostained with PHF-1. […] The use of the MSN1a cell culture model for screening of novel compounds for therapeutic activity in AD is, therefore, quite warranted.

[5] = test system: PHF-1 and TG3 epitopes in MSN1a cells; assay: Generation of Alzheimer brain specific epitopes in MSN1a cells; assay type: cell-based, human; conditions: epitopes absent or very low in untreated cells
Protocol: Conditions were established which led to hyperphosphorylation of the proteins known to be involved in PHF formation. Using monoclonal antibodies PHF-1 and TG3 generated to human PHF preparations, the effects of a variety of manipulations of the phosphorylation state of these proteins were tested. These tests required that most of the abnormal epitopes recognized by these monoclonal antibodies in the human Alzheimer brain should be generated in the MSN1a cells. […] These epitopes are either absent or present at a very low level in untreated MSN1a cells.
Shown in FIG. 2A are bar graphs (percent of AD) of the ELISA immunoreactivity of brain preparations (AD or normal) to either PHF-1 or TG3. Shown in FIG. 2B are bar graphs (percent of MSN+) of the ELISA immunoreactivity of MSN1 a cell preparations (minus or plus okadaic acid) to either PHF-1 or TG3. The MSN1a cell preparations plus vs minus okadaic acid closely parallel the AD vs normal brain preparations. […] The cell culture system according to the invention in which epitopes characteristic of PHF can be readily generated and subsequently recognized by the specific Alzheimer brain specific antibodies provides an assay suitable for screening compounds for their ability to block the production of these phosphorylated epitopes.

`CN(C)CCCN1c2ccccc2Sc2ccc(Cl)cc21` [Chlorpromazine, chlorpromazine] was tested, and the “SIGNAL ± SEM, Temporal” value ([1]; Normal 0.00 ± 0.00, AD 17.55 ± 2.82) was 0.16 ± 0.11, the “SIGNAL ± SEM, Frontal” value ([1]; Normal 0.12 ± 0.12, AD 16.54 ± 2.59) was 0.12 ± 0.11 and the “PHF epitope levels in brain” value [2] was “low PHF epitope levels similar to normal controls”. The IC50 [3] was ~70 µM, the “inhibition of production of aberrant phosphorylated epitopes in the MSN1a cell culture model (in words)” value [3] was “effective in inhibiting the production of these aberrant phosphorylated epitopes” and the “production of paired helical filament epitopes” value ([4]; 100 mM chlorpromazine, 2 hours at 37° C., PHF-1 immunostain) was “greatly decreased the production of paired helical filament epitopes”. For the same molecule, the “inhibition of expression of PHF epitopes upon treatment of MSN1a cells with okadaic acid” value ([4]; AD specific antibodies, FIG. 3) was “markedly inhibit the expression of PHF epitopes”.

Molecule `CN1CCN(CCC(=O)c2ccccc2)CC1` [Example 1, 1-Phenyl-3-(4'-methyl-1'-piperazinyl)-1-propanone dihydrochloride] has an IC50 [3] of 12.4 µM.

`CCCN1CCN(CCC(=O)c2cccc(C)c2)CC1` [Example 5, 1-(m-Methylphenyl)-3-(4'-propyl-1'-piperazinyl)-1-propanone dihydrochloride] was tested, and the IC50 [3] was 15.8 µM.

`Cc1cccc(C(=O)CCN2CCOCC2)c1` [Example 9, 1-(m-Methylphenyl)-3-(4'-morpholinyl)-1-propanone hydrochloride] gave an IC50 [3] of 5.4 µM.

With `COc1ccccc1C(=O)CCN1CCOCC1` [Example 13, 1-(o-Methoxyphenyl)-3-(4'-morpholinyl)-1-propanone hydrochloride] the IC50 [3] was 9.1 µM.

Molecule `O=C(CCN1CCOCC1)c1cc(Cl)ccc1Cl` [Example 17, 1-(2",5"-Dichlorophenyl)-3-(4'-morpholinyl)-1-propanone hydrochloride] has an IC50 [3] of 15.8 µM.

With `CN1CCN(CCC(=O)c2ccccc2F)CC1` [Example 23, 1-(o-Fluorophenyl)-3-(4'-methyl-1'-piperazinyl)-1-propanone dihydrochloride] the IC50 [3] was 13.2 µM.

With `CC1CN(CCC(=O)c2cccc([N+](=O)[O-])c2)CC(C)N1` (centres unmarked) [Example 26, 1-(m-Nitrophenyl)-3-(2',6'-dimethyl-4'-piperazinyl)-1-propanone dihydrochloride] the IC50 [3] was 7.3 µM.

Work on `O=C(CCN1CCOCC1)c1cccc([N+](=O)[O-])c1` [Example 30, 1-(m-Nitrophenyl)-3-(4'-morpholinyl)-1-propanone hydrochloride] yielded an IC50 [3] of 5.9 µM.

`CN(c1cccc(C(=O)CCN2CCOCC2)c1)S(C)(=O)=O` [Example 34, 1-[m-(N-Methyl-N-methylsulfonylamino)phenyl]-3-(4'-morpholinyl)-1-propanone hydrochloride] gave an IC50 [3] of 7.5 µM.

With `O=C(CCN1CCOCC1)c1cccc(Cl)c1` [Example 38, 1-(m-Chlorophenyl)-3-(4'-morpholinyl)-1-propanone hydrochloride] the IC50 [3] was 5.8 µM.

`O=C(CCN1CCOCC1)c1ccc(Br)cc1` [Example 42, 1-(p-Bromophenyl)-3-(4'-morpholinyl)-1-propanone hydrochloride] was tested, and the IC50 [3] was 6.4 µM.

`CC1CN(CCC(=O)c2ccccc2)C(C)CN1CCC(=O)c1ccccc1` (centres unmarked) [Example 45, 1,4-Bis-(3'-Phenylpropane-3'-one-1'-yl)-2,5-dimethylpiperazine dihydrochloride] showed an IC50 [3] of 11.4 µM.

With `C=C1[C@@H](O)[C@@H]2O[C@]3(CC[C@H](/C=C/[C@@H](C)[C@@H]4CC(C)=C[C@@]5(O[C@H](C[C@@](C)(O)C(=O)O)CC[C@H]5O)O4)O3)CC[C@H]2O[C@@H]1[C@@H](O)C[C@H](C)[C@H]1O[C@@]2(CCCCO2)CC[C@H]1C` [okadaic acid] the “generation of the epitopes associated with Alzheimer brain specific monoclonal antibodies” value [5] was “found to generate the epitopes”.
